Data from patent US20030170643A1, “Regulation of apoB treatment and drug screening for cardiovascular and metabolic disorders or syndromes” (priority 1999, published 2003).

How the values were obtained:
Assay type in all cases: cell-based
[1] = test system: rat hepatoma cells; test: TBARS assay of ROS in cell lysates of rat hepatoma cells; details: fatty acid alone
Procedure: FIG. 13 illustrates that either an iron chelator (DFX) or lipid antioxidants block DHA-stimulated apoB degradation and reactive oxygen species (ROS) production. Rat hepatoma cells were plated in culture wells and pre-incubated in media containing either DHA or DHA with one of the indicated compounds. Radiolabeled methionine/cysteine was added to the culture media for 15 minutes, after which time, the culture media were replaced by fresh media identical in composition except that radiolabeled methionine/cysteine were replaced by unlabeled methionone/cysteine. The recovery of labeled apoB100 ([^35S]-apoB100) from the media and cell lysate was determined at the indicated time points (with time 0 being the point when the fresh media were applied to the cells) by immunoprecipitating apoB species with a rabbit polyclonal antibody to rat apoB, resuspending the immunoprecipitates, combining aliquots from cell lysate and media samples from each well, resolving the protein contents of the combined immunoprecipitates by SDS-polyacrylamide gel electrophoresis (SDS-PAGE), and exposing the resultant gels to X-ray film in order to visualize the labeled apoB bands. In panel A are shown representative signals for radiolabeled apoB100 in each of the treatment conditions. […] For each treatment, there were at least 2 wells/treatment for each time point and the entire experiment repeated. The signal intensities of the apoB100 bands were quantified by densitometry and the mean relative recoveries (the % of the 15 minute, or initial, value still remaining at 120 minutes) ±SEM are shown in panel B. Note that the visual impressions observable in panel A are confirmed by the quantitative analysis; i.e., there is a substantial increase in labeled apoB100 recovery with any of the co-treatments. In panel C, the ROS content of the cell lysates at the end of the experiment was measured by the standard TBARS assay (Stocks et al., 1974, Clin Sci Mol Med 47,215-222). Note that compared to control (BSA), DHA induced a large increase in TBARS, as expected because of its high content on unsaturated bonds. […] FIG. 15 illustrates that AA stimulates apoB100 degradation and increases ROS. […] Note in the upper panel that the combined recovery (from two separate wells/time point) of radiolabeled apoB100 decreased from 15 to 120 minutes, indicating significant apoB100 degradation had occurred in the presence of AA. […] In addition to being a source of ROS, AA can also be converted by cyclooxygenase (COX) to bioactive prostaglandin compounds. We therefore repeated the experiment with AA but with co-treatment by the COX inhibitor aspirin.

[2] = test system: rat hepatoma cells; test: Pulse-chase recovery of [35S]-apoB100 (apoB100 degradation) in rat hepatoma cells; details: for effect on DHA-stimulated apoB100 degradation: rat hepatoma cells or primary hepatocytes, co-treatment with DHA/BSA
Procedure: FIG. 13 illustrates that either an iron chelator (DFX) or lipid antioxidants block DHA-stimulated apoB degradation and reactive oxygen species (ROS) production. Rat hepatoma cells were plated in culture wells and pre-incubated in media containing either DHA or DHA with one of the indicated compounds. Radiolabeled methionine/cysteine was added to the culture media for 15 minutes, after which time, the culture media were replaced by fresh media identical in composition except that radiolabeled methionine/cysteine were replaced by unlabeled methionone/cysteine. The recovery of labeled apoB100 ([^35S]-apoB100) from the media and cell lysate was determined at the indicated time points (with time 0 being the point when the fresh media were applied to the cells) by immunoprecipitating apoB species with a rabbit polyclonal antibody to rat apoB, resuspending the immunoprecipitates, combining aliquots from cell lysate and media samples from each well, resolving the protein contents of the combined immunoprecipitates by SDS-polyacrylamide gel electrophoresis (SDS-PAGE), and exposing the resultant gels to X-ray film in order to visualize the labeled apoB bands. In panel A are shown representative signals for radiolabeled apoB100 in each of the treatment conditions. […] For each treatment, there were at least 2 wells/treatment for each time point and the entire experiment repeated. The signal intensities of the apoB100 bands were quantified by densitometry and the mean relative recoveries (the % of the 15 minute, or initial, value still remaining at 120 minutes) ±SEM are shown in panel B. Note that the visual impressions observable in panel A are confirmed by the quantitative analysis; i.e., there is a substantial increase in labeled apoB100 recovery with any of the co-treatments. In panel C, the ROS content of the cell lysates at the end of the experiment was measured by the standard TBARS assay (Stocks et al., 1974, Clin Sci Mol Med 47,215-222). Note that compared to control (BSA), DHA induced a large increase in TBARS, as expected because of its high content on unsaturated bonds.
FIG. 14 illustrates that DHA, but not saturated MA, induces apoB100 degradation in rat hepatoma cells. An experiment similar to the one described in FIG. 13 was performed, with the following changes: A) The immunoprecipitates from cell lysate and media samples were not combined, but separately analyzed. B) In addition to the 15 and 120 minute time points, apoB recovery was determined at 30 minutes. C) In addition to DHA, the effects of the fatty acid myristic (MA) were also tested because it has no unsaturated bonds and should not give rise to ROS.
FIG. 15 illustrates that AA stimulates apoB100 degradation and increases ROS. […] Note in the upper panel that the combined recovery (from two separate wells/time point) of radiolabeled apoB100 decreased from 15 to 120 minutes, indicating significant apoB100 degradation had occurred in the presence of AA. […] In addition to being a source of ROS, AA can also be converted by cyclooxygenase (COX) to bioactive prostaglandin compounds. We therefore repeated the experiment with AA but with co-treatment by the COX inhibitor aspirin.
To further explore the underlying mechanisms, rat hepatoma cells or primary hepatocytes were incubated with the Ω-3 fatty acid DHA complexed to BSA, while blocking candidate cellular mediators. […] There was, however, strong evidence against a role for calcium. Chelation of intracellular Ca^++ with BAPTA-AM, pharmacologic blockage of Ca^++ channels, depletion of the ER-calcium pool, and increasing Ca++ influx with an ionophore each had no effect. Because EGTA also chelates Fe^+++, and DHA is subject to Fe^+++-dependent peroxidation, the role of this lipid modification was examined. As shown in FIG. 13A and 13B, Desferroxamine (DFX), a chelator of Fe^+++, the antioxidant vitamin E (Vit E), and the synthetic antioxidant BHT, each inhibited DHA-stimulated apoB100 degradation by ˜60%.

[3] = test system: rat primary hepatocytes; test: Secretion of newly synthesized ([35S]methionine-labeled) VLDL-apoproteins by rat primary hepatocytes incubated with fatty acid/BSA complexes; details: fatty acid/BSA complexes (0.8 mM FA), VLDL fraction
Procedure: Cells were plated at a density of 2×10^6 cells/ml on 60-mm culture dishes (previously coated with poly-D-lysine) in modified M199 medium (M199, 1% fetal bovine serum [FBS], 1 mM nicotinamide, 0.1 nM insulin, 3 mg/ml choline, 1.1% L-glutamine, 1% BSA). After a four-hour attachment period, the medium was changed (modified M199 identical to the above except BSA was omitted and the concentration of FBS was raised to 10%). The next morning, cells were washed in serum-free medium three times, the experimental media added, and the cells incubated at 37° C. for 4-6 hours. The experimental medium consisted of serum-free RPMI containing the appropriate isotopes (see below) and fatty acids (FA) present at a final concentration of 0.8 mM complexed to BSA (FA:BSA molar ratio=5:1). The fatty acids used were oleic (OA), EPA, and DHA. Control medium was identical, except that BSA (0.16 mM) without fatty acids was present. For metabolic labeling of proteins, [^35S]methionine (70 uCi/ml) was included in the experimental media.
Following the 4-6 hour incubation period, the cell monolayer was washed, then solubilized in 0.1 M NaOH, and the cell protein determined by the Lowry method (Lowry, O. H., Rosebrough, N. J., Farr, A. L., and Randall, R. J. (1951) J Biol Chem 193, 265-75). Each 60 mm dish contained approximately 1-1.5 mg of cell protein. The secreted apoproteins were isolated from the medium either by ultracentrifugation or immunoprecipitation. To isolate the d<1.006 (VLDL) and 1.006<d<1.063 (IDL and LDL) g/ml density classes by centrifugation, sequential 20 hour runs at 48,000 rpm in a 50 Ti Beckman rotor at 4° C. were performed. After the first run at d=1.006, the upper VLDL layer was harvested and the density of the infranatant adjusted to 1.066 g/ml with solid KBr. After being overlaid with a KBr solution of density 1.063, the adjusted infranatant was re-centrifuged as before to isolate the IDL and LDL fractions. In some experiments, the HDL fraction (1.063<d<1.21) was isolated by sequential density centrifugation. Lipoprotein fractions were then dialyzed against 0.9% NaCl containing 10 mM unlabeled methionine, 0.2 mM PMSF, and 2 mM EDTA. Dialyzed lipoproteins were delipidated using 9 volumes of 100% isopropanol. Apoproteins were then collected by centrifugation in a Sorval HB-4 rotor at 10,000 rpm and 4° C. for 20 min, and dissolved in buffer (0.01 M phosphate, pH 7,1 % SDS, 10% glycerol), in preparation for electrophoresis.
To immunoprecipitate apoB or apoE from unfractionated conditioned medium, monospecific rabbit antiserum to rat apoB or apoE was used. Briefly, an aliquot of the medium was mixed with an equal volume of diluted antiserum (1:100 in PBS and 1% BSA) and incubated overnight at 4° C. Staph A was added in the form of immunoprecipitin, and the resultant precipitate containing the immune complexes was washed extensively, the staph A cells removed, and the isolated apoprotein dissolved in gel sample buffer (0.0625M tris/Cl, pH 6.8, 20% glycerol, 2% SDS). Electrophoretic separation of apoVLDL, apoIDL/LDL, and immunoprecipitates was accomplished using 3.5% acrylamide-18% glycerol gels as described (Maguire, G. F., Lee, M., and Connelly, P. W. (1989) J Lipid Res 30, 757-61). An aliquot of each sample was taken for scintillation counting, so that total radioactivity applied to each lane could be determined. Also, protein size standards were included in each gel.
After electrophoresis, the gels were stained, fixed, soaked in Enhance fluor solution, and dried following protocols supplied by the manufacturer. Dried gels were then exposed to X-ray film at −70° C. and signals on the resulting fluorograms were typically quantified by densitometry or phosphorimaging. Using the total radioactivity applied to each lane of the gel and the relative signal intensity of each band in that lane, the radioactivity associated with each apoprotein species was calculated. […]

[4] = test system: Rat McA hepatoma cells; test: Proteasome inhibition and apoB degradation in rat McA hepatoma cells
Procedure: FIG. 8 illustrates that EPA stimulates apoB degradation even when proteasomes are inhibited. Panel A: Rat McA hepatoma cells were incubated at 37° C. for 4 hr in [^35S]methionine-containing medium supplemented with either BSA (C) or EPA/BSA complexes (EPA) in the absence (EPA) or presence (EPA+LAC) of the proteasome inhibitor, lactacystin. Samples of cell lysates and conditioned media were subjected to immunoprecipitation analysis with anti-apoB antiserum, followed by SDS-PAGE and fluorography. In three separate experiments, the effect of lactacystin on EPA-induced degradation averaged less than 20%. Panel B: Rat McA hepatoma cells were incubated at 37° C. for 4 hr in [^355]methionine-containing medium supplemented with either BSA (Control) or BSA and lactacystin (LAC). After immunoprecipitation/SDS-PAGE analysis of the cell lysate and media samples, the resulting fluorograms were analyzed by phosphorimager and the recovery of total (cell+medium) apoB100 was quantified. The results shown (mean total recovery relative to control, ±SE) are based on 8 independent determinations. * indicates P<0.001, LAC vs. control.
To determine whether the proteasome mediated Ω-3 fatty acid-induced apoB degradation, rat hepatoma cells were incubated at 37° C. for 4 hr in [^35S]methionine-containing medium supplemented with either BSA or EPA/BSA complexes in the absence or presence of the proteasome inhibitor, lactacystin ([…]; purchased from the laboratory of Dr. E. J. Corey, Harvard University). Samples of cell lysates and conditioned media were subjected to immunoprecipitation analysis with anti-apoB antiserum, followed by SDS-PAGE and fluorography. To determine whether Ω-3 fatty acids targeted apoB to lysosomal degradation, a similar experiment was performed substituting ammonium chloride (40 mM) for lactacystin.

For `CCCCC/C=C\C/C=C\C/C=C\C/C=C\CCCC(=O)O` [AA, arachidonic acid], the “reactive oxygen species (ROS), TBARS assay, fatty acid compared to BSA” value [1] was “increases”, the “AA-induced apoB100 degradation with co-treatment by the COX inhibitor aspirin” value ([2]; AA plus aspirin) was “still induced apoB100 degradation” and the “apoB100 degradation induced by the fatty acid” value ([2]; rat hepatoma cells, 15 to 120 minutes chase) was “stimulates the degradation of apoB”.

With `CC(=O)OCOC(=O)CN(CC(=O)OCOC(C)=O)c1ccccc1OCCOc1ccccc1N(CC(=O)OCOC(C)=O)CC(=O)OCOC(C)=O` [BAPTA-AM] the “effect on DHA-stimulated apoB100 degradation” value [2] was “no effect”.

With `O=C(O)CN(CC(=O)O)c1ccccc1OCCOc1ccccc1N(CC(=O)O)CC(=O)O` [BAPTA] the “effect on DHA-stimulated apoB100 degradation” value [2] was “blocked”.

For `Cc1cc(C(C)(C)C)c(O)c(C(C)(C)C)c1` [BHT, butylhydroxytoluene], the “inhibition of DHA-stimulated apoB100 degradation” value ([2]; co-treatment with DHA, FIG. 13A and 13B) was ~60%.

For `O=C(O)CN(CCOCCOCCN(CC(=O)O)CC(=O)O)CC(=O)O` [EGTA], the “effect on DHA-stimulated apoB100 degradation” value [2] was “blocked”.

In the case of `CC/C=C\C/C=C\C/C=C\C/C=C\C/C=C\CCCC(=O)O` [EPA, eicosapentaenoic acid], the “secretion of newly synthesized VLDL-ApoB48, percentage of secretion observed with BSA alone” value [3] is reported as 45 ± 3 percentage, the “secretion of newly synthesized VLDL-ApoB100, percentage of secretion observed with BSA alone” value [3] is reported as 25 ± 2 percentage and the “secretion of newly synthesized VLDL-ApoE, percentage of secretion observed with BSA alone” value [3] is reported as 45 ± 1 percentage.

With `CCCCCCCCCCCCCC(=O)O` [MA, myristic acid] the “reactive oxygen species (ROS), TBARS assay, fatty acid compared to BSA” value [1] was “does not increase”.

`CC(=O)Oc1ccccc1C(=O)O` [aspirin] was tested, and the “effect on DHA-stimulated apoB100 degradation” value [2] was “no effect”.

For `CC(=O)N[C@@H](CSC(=O)[C@]1([C@@H](O)C(C)C)NC(=O)[C@H](C)[C@@H]1O)C(=O)O` [lactacystin], the “inhibition of EPA-induced apoB degradation” value ([4]; FIG. 8 Panel A) was “little if any inhibition”, the “apoB100 recovery in the absence of Ω-3 fatty acids” value ([4]; FIG. 8 Panel B, total (cell+medium), P<0.001 vs control) was “increased” and the “effect of lactacystin on EPA-induced apoB degradation” value ([4]; average of three separate experiments, 4 hr) was “less than 20%”.
